In article PMC7717699, “Tuning the activity of iminosugars: novel N-alkylated deoxynojirimycin derivatives as strong BuChE inhibitors” (Journal of Enzyme Inhibition and Medicinal Chemistry, 2020):
Read-outs that look alike come from different tables or passages of the source.

How the values were obtained:
[1] = biological target: T1, β-galactosidase (Aspergillus Oryzae) (Aspergillus oryzae, UniProt Q2UCU3); test: β-Galactosidase (A. oryzae) inhibition; format: biochemical
T1 construct: purchased
T1 sequence (Q2UCU3 19-1005): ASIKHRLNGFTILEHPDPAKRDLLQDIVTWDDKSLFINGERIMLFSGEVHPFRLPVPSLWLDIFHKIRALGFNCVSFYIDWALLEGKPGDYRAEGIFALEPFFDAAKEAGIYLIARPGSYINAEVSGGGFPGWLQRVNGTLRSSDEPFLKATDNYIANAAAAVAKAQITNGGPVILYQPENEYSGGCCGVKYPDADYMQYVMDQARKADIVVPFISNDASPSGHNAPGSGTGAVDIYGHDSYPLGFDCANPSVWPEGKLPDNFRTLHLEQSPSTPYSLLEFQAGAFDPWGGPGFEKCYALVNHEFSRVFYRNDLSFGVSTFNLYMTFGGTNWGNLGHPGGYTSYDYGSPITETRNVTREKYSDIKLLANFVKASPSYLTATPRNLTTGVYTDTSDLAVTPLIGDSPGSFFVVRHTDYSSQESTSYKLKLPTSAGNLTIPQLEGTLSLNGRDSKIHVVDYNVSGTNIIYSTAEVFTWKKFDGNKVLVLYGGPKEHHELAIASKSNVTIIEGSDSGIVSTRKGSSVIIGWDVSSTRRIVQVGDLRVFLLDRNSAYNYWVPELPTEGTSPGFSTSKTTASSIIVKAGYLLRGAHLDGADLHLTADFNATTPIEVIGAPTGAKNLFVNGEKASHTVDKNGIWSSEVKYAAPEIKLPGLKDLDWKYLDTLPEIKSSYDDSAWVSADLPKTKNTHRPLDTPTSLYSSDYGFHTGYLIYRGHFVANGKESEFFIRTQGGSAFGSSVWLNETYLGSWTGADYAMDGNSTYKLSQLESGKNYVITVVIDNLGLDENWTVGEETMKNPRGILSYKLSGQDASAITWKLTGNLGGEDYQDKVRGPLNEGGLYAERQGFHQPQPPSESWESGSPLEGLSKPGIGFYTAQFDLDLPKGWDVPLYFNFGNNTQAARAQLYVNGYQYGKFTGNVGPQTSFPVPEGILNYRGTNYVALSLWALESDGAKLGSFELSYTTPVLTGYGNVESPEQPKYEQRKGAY
Procedure: (§1) For both families of enzymes used herein (glycosidases and cholinesterases), stock solutions of the inhibitors were prepared in DMSO; DMSO content was kept at 5% (V/V) for glycosidases and 1.25% (V/V) for cholinesterases. Enzymes were properly dissolved in water in a concentration in which the rate of the reaction when using [S] = 4 × KM is in the range 0.12–0.15 Abs/min. In both kinds of enzymes, an initial screening at 100 µM inhibitor concentration was performed, using the following substrate concentrations: [S] = 0.25 mM for α-glucosidase (Saccharomyces cerevisiae), 4.0 mM for β-glucosidase (almonds), 0.60 mM for α-galactosidase (green coffee beans), 0.51 mM for β-galactosidase (Escherichia coli), 1.5 mM for β-galactosidase (Aspergillus Oryzae), 0.12 mM for AChE (Electrophorus electricus), 0.11 mM for BuChE (equine serum). […] Each assay was run in duplicate.
(§2) Glycosidase assays were accomplished using the methodology reported by Bols and co-workers[30]. Each set of experiments is prepared in PS cuvettes using 0.1 M phosphate buffer (pH 6.8) and the corresponding o- or p-nitrophenyl glycopyranosides as substrates. Reactions were monitored at 25 °C by following the formation of the corresponding nitrophenolates at 400 nm (glucosidases and α-galactosidase) or 420 nm (β-galactosidases) over a time of 125 s.
(§3) Assessment of the inhibitory capacity against glycosidases was accomplished using the methodology reported by Bols and co-workers[30]. p-Nitrophenyl glycosides (o- for β-galactosidases) were used as model substrates, and the release of the corresponding p-nitrophenolates at pH 6.8 was monitored spectrophotometrically (λmax = 400 or 420 nm for p- or o-nitrophenolates, respectively).

[2] = biological target: T2, β-galactosidase (Escherichia coli) (Escherichia coli, UniProt P00722); test: β-Galactosidase (E. coli) inhibition; format: biochemical
T2 construct: purchased
Procedure: as §1, §2, §3

[3] = biological target: T3, BuChE (equine serum) (Equus caballus, UniProt P81908); test: BuChE inhibition, Ellman's assay; format: biochemical; conditions: for Mode of inhibition BuChE: Cornish–Bowden method
T3 construct: 0.11 mM for BuChE (equine serum); from tissue; host or cells: equine serum
Procedure: as §1
(§4) For cholinesterases, minor modifications on Ellman’s assay[31] were performed. The activity was measured in PS cuvettes containing […] (pH 8.0), 0.88 mM DTNB, and substrate (acetyl- and butyryl-thiocholine iodides for AChE and BuChE, respectively), The formation of the chromophore was monitored at 405 nm over a time of 125 s.
(§5) For strong inhibitors, the mode of inhibition was determined using the Cornish–Bowden method, which involves the use of two different plots: 1/v vs. [I] (Dixon plot) and [S]/v vs. [I]. For the calculation of kinetic parameters (KM, Vmax) a nonlinear regression analysis (least squares fit, GraphPad Prism 8.01) was used. Data are expressed as the mean ± SD.
(§6) Derivatives 11 and 12 were tested also against AChE (Electrophorus electricus) and BuChE (equine serum), as recognised models for human cholinesterases due to their close structural resemblance. For that purpose, Ellman’s colorimetric assay was used; this is an indirect test in which acetyl and butyryl thiocholine iodides are used as model substrates, which upon interaction with the enzyme release thiocholine, which in turn reacts with the chromogen reagent 5,5′-dithiobis(2-nitrobenzoic acid (DTNB) to give 2-nitro-5-mercaptobenzoate (at pH 8.0). The monitoring of the latter at 405 nm furnishes the kinetic parameters.

[4] = biological target: AChE (Electrophorus electricus) (Electrophorus electricus, UniProt O42275); test: AChE inhibition, Ellman's assay; format: biochemical; conditions: for Mode of inhibition AChE: Cornish–Bowden method
Procedure: as §1, §4, §5, §6

[5] = biological target: β-glucosidase (almonds); test: β-Glucosidase inhibition (p-nitrophenyl glycoside substrate); format: biochemical; conditions: for IC50: almond enzyme, pH 6.8, 25 °C; for Mode of inhibition β-Glucosidase: Cornish–Bowden method; for Ki: binding to free enzyme, read-out: Kia β-Glucosidase
Procedure: as §1, §2, §5, §3

[6] = cited from earlier work
[7] = biological target: T4, α-galactosidase (green coffee beans) (Coffea arabica, UniProt Q42656); test: α-Galactosidase inhibition; format: biochemical
T4 construct: purchased; host or cells: green coffee beans
Procedure: as §1, with “Enzymes” for “For both families of enzymes used herein (glycosidases and cholinesterases), stock solutions of the inhibitors were prepared in DMSO; DMSO content was kept at 5% (V/V) for glycosidases and 1.25% (V/V) for cholinesterases. Enzymes”
Glycosidase assays were accomplished using the methodology reported by Bols and co-workers[30]. Each set of experiments is prepared in PS cuvettes using 0.1 M phosphate buffer (pH 6.8) and the corresponding o- or p-nitrophenyl glycopyranosides as substrates.
as §3

[8] = biological target: T5, α-glucosidase (Saccharomyces cerevisiae) (Saccharomyces cerevisiae, UniProt P53341); test: α-Glucosidase inhibition (p-nitrophenyl glycoside substrate); format: biochemical
T5 construct: purchased
Procedure: as §1, §2
(Dixon plot) and [S]/v vs. [I]. For the calculation of kinetic parameters (KM, Vmax) a nonlinear regression analysis (least squares fit, GraphPad Prism 8.01) was used. Data are expressed as the mean ± SD.
as §3

[9] = test system: BJ-hTERT human fibroblasts; test: Antiproliferative SRB assay, BJ-hTERT; format: cell-based; conditions: Fibroblast, 48 h, non-tumour fibroblasts
[10] = equine serum, pH 8.0, read-out: IC50 BuChE
[11] = Electrophorus electricus, pH 8.0, read-out: IC50 AChE
[12] = binding to enzyme-substrate complex, read-out: Kib BuChE
[13] = binding to free enzyme, read-out: Kia BuChE
[14] = binding to enzyme-substrate complex, read-out: Kib AChE
[15] = binding to free enzyme, read-out: Kia AChE

T2 sequence (P00722 2-1024 limits assumed): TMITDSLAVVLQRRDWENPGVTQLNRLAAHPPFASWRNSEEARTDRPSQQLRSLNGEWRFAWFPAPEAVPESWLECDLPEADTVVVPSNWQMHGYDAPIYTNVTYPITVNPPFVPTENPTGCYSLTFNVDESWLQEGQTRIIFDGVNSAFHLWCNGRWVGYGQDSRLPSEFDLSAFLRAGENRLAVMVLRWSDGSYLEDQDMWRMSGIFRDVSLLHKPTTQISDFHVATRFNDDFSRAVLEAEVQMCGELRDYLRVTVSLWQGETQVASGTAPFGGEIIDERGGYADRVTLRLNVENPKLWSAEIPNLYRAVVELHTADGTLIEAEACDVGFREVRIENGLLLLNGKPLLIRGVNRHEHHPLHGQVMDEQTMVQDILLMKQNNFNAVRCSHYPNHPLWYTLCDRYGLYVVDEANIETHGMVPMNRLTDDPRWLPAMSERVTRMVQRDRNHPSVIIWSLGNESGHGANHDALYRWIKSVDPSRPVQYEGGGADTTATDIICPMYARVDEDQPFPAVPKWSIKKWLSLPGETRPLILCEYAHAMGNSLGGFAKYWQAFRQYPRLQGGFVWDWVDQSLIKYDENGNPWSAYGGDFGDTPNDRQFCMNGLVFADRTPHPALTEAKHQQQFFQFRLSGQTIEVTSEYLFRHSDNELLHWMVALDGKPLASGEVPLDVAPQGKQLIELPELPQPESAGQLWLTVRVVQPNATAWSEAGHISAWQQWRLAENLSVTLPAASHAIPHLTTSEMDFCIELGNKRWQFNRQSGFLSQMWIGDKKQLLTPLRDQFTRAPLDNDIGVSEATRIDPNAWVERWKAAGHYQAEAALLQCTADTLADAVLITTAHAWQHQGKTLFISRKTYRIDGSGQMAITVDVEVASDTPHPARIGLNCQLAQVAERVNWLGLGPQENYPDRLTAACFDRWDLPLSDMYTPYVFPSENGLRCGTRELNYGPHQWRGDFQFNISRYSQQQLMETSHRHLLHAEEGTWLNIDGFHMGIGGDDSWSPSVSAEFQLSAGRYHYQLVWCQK
Sequence of AChE (Electrophorus electricus) (O42275 24-633): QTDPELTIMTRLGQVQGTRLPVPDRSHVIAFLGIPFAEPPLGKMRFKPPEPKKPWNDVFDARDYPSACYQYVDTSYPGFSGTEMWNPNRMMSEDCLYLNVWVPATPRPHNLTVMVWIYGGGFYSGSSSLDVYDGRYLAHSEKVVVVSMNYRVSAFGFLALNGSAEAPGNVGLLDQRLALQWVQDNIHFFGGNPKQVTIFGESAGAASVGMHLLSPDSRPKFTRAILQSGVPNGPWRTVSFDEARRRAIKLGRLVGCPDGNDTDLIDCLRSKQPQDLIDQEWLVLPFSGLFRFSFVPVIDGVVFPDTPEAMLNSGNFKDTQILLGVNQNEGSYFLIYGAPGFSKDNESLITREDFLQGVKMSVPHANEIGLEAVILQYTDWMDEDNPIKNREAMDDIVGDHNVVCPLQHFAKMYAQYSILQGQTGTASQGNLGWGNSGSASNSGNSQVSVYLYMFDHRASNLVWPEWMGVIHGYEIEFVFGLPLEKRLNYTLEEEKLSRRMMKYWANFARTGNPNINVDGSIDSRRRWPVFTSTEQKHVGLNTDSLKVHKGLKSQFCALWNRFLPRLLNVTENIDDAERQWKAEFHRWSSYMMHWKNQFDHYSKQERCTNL
T3 sequence (P81908 whole entry): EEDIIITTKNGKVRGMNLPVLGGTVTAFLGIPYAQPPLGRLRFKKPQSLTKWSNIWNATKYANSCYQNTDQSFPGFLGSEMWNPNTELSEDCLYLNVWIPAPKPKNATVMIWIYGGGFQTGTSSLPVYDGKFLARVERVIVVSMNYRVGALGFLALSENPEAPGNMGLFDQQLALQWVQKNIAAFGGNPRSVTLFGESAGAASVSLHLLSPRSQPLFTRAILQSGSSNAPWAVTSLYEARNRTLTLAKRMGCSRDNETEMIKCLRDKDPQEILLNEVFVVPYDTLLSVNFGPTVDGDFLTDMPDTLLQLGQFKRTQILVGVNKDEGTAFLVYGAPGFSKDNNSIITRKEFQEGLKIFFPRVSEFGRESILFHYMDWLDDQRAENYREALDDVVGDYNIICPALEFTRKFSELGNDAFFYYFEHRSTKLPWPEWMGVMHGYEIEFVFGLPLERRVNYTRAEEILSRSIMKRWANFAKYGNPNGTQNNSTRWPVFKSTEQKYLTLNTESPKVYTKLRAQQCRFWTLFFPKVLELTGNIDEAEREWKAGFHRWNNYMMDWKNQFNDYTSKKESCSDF
T4 sequence (Q42656 16-378): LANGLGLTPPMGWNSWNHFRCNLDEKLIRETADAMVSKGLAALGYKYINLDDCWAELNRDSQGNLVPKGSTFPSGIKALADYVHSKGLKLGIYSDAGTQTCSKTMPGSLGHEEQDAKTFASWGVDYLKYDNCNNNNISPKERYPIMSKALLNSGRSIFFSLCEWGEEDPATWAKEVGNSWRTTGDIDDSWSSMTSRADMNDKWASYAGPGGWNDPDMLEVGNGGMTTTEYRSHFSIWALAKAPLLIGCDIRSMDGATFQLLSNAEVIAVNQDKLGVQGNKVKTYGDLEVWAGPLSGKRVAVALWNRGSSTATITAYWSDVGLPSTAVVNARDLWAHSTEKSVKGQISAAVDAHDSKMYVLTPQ
T5 sequence (P53341 whole entry): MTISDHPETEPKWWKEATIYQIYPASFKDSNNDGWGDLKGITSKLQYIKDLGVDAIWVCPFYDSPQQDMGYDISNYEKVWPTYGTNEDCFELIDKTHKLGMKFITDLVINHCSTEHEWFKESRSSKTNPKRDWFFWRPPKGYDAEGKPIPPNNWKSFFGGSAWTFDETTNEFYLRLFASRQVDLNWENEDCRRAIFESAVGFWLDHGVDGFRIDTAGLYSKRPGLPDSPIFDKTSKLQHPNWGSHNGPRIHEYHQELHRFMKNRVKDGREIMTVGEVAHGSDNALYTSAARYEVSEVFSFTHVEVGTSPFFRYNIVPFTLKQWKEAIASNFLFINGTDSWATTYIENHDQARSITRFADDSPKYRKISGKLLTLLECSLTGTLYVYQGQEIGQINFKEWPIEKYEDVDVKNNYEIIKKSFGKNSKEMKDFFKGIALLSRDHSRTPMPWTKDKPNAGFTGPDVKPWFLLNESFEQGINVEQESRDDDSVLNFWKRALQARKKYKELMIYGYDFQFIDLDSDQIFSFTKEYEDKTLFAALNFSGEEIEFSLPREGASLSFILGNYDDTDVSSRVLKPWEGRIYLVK

Row | Compound | Mode of inhibition BuChE [3] | IC50 [5] [µM] | IC50 [7] [µM] | IC50 [1] [µM] | IC50 [2] [µM] | IC50 [3, 10] [µM] | IC50 [4, 11] [µM] | Mode of inhibition β-Glucosidase [5] | Ki [5] [µM] | IC50 [8] [µM] | further results
1 | OC[C@H]1NC[C@H](O)[C@@H](O)[C@@H]1O [Compound 1-DNJ, 1-deoxynojirimycin, reference compound] | Non-competitive | […] | – | – | – | – | – | – | – | – | IC50 ([1]; Asp. Oryzae enzyme, read-out: IC50 β-Galactosidase (Asp. Oryzae)): > 100 µM; IC50 ([2]; E. coli enzyme, read-out: IC50 β-Galactosidase (E. coli)): > 100 µM; IC50 [3]: 10 µM; Ki [3]: 16 ± 3 µM; IC50 [4]: > 100 µM
2 | CCCCN1C[C@H](O)[C@@H](O)[C@H](O)[C@H]1CO [N-butyl-DNJ, N-butyl-1-deoxynojirimycin] | – | – | – | – | – | – | – | – | – | – | pKa [6]: 7.1
3 | OC[C@@H]1[C@@H](O)[C@H](O)[C@@H](O)CN1CCCCCCOCCc1ccccc1 [Compound 11a] | – | 4.6 | > 100 | > 100 | > 100 | > 100 | > 100 | Competitive | 6.5 | 126 | Ki [8]: 93 µM; Mode of inhibition α-Glucosidase ([8]; Cornish–Bowden method): Competitive
4 | OC[C@@H]1[C@@H](O)[C@H](O)[C@@H](O)CN1CCCCCOCCc1ccccc1 [Compound 12a] | – | 28 | > 100 | > 100 | > 100 | > 100 | > 100 | Competitive | 23 ± 4 | > 100 | –
5 | OC[C@@H]1[C@@H](O)[C@H](O)[C@@H](O)CN1CCCCCOCCc1ccc(O)c(O)c1 [Compound 12d] | – | > 50 | – | – | – | > 100 | > 100 | – | – | > 100 | –
6 | OC[C@@H]1[C@@H](O)[C@H](O)[C@@H](O)CN1CCCCCCOCCc1ccc(O)c(O)c1 [Compound 11d] | – | 15 | > 100 | > 100 | > 100 | 76 | > 100 | Competitive | 11 | > 100 | GI50 [9]: 39 ± 5 µM
7 | COc1ccc(CCOCCCCCN2C[C@H](O)[C@@H](O)[C@H](O)[C@H]2CO)cc1 [Compound 12c] | – | 25 | > 100 | > 100 | > 100 | > 100 | > 100 | Competitive | 14 ± 6 | > 100 | –
8 | COc1ccc(CCOCCCCCCN2C[C@H](O)[C@@H](O)[C@H](O)[C@H]2CO)cc1OC [Compound 11e] | mixed inhibition | 14 | > 100 | > 100 | > 100 | 1.9 | 5.8 | Competitive | 15 | > 100 | Ki [3, 12]: 4.5 µM; Ki [3, 13]: 1.4 µM; Mode of inhibition AChE [4]: mixed inhibitor; Ki [4, 14]: 5.2 µM; Ki [4, 15]: 9.3 µM
9 | CCCCCCCCCN1C[C@H](O)[C@@H](O)[C@H](O)[C@H]1CO [N-nonyl-DNJ] | – | – | – | – | – | – | – | – | – | – | pKa [6]: 6.7
10 | OC[C@@H]1[C@@H](O)[C@H](O)[C@@H](O)CN1CCCCCCOCCc1ccc(O)cc1 [Compound 11b] | – | 12 | > 100 | > 100 | > 100 | > 100 | > 100 | Competitive | 17 | > 100 | –
11 | COc1cc(CCOCCCCCCN2C[C@H](O)[C@@H](O)[C@H](O)[C@H]2CO)ccc1O [Compound 11f] | Mixed | 8.2 | > 100 | > 100 | > 100 | 1.8 | 7.3 | Competitive | 9.6 | > 100 | Ki [3, 12]: 5 µM; Ki [3, 13]: 1.5 µM; Mode of inhibition AChE [4]: Non-competitive; Ki [4, 14]: 17 ± 5 µM; Ki [4, 15]: 17 ± 5 µM
12 | COc1ccc(CCOCCCCCCN2C[C@H](O)[C@@H](O)[C@H](O)[C@H]2CO)cc1 [Compound 11c] | – | 6 | > 100 | > 100 | > 100 | > 100 | > 100 | Competitive | 4.5 | > 100 | –
13 | OC[C@@H]1[C@@H](O)[C@H](O)[C@@H](O)CN1CCCCCCOCCc1ccc2c(c1)OCO2 [Compound 11g] | Non-competitive | 8.4 | > 100 | > 100 | > 100 | 7.3 | 48 | Competitive | 9 | > 100 | Ki [3, 12]: 9.2 ± 1.9 µM; Ki [3, 13]: 9.2 ± 1.9 µM; Mode of inhibition AChE [4]: Mixed; Ki [4, 14]: 43 µM; Ki [4, 15]: 56 µM
